Test results from US20170135996A1, “PHARMACEUTICAL DEPOT FOR N-{5-[(CYCLOPROPYLAMINO)CARBONYL]-2-METHYLPHENYL)-3-FLUORO-4-(PYRIDIN-2-YLMETHOXY)BENZAMIDE” (AstraZeneca AB, priority 2008, published 2017).

What was measured:
[1] = system: rat mono-iodoacetate (MIA) model of joint pain; assay: Rat mono-iodoacetate (MIA) model of joint pain, weight bearing asymmetry; format: in vivo; conditions: unformulated, 29 μg/ml (69 μM) in 5 μl intra-articular, 3 days post MIA
Experimental: All studies were carried out in a rat mono-iodoacetate (MIA) model of joint pain as a screen for analgesia of pain driven by joint inflammation and destruction (see Ivanavicius et al., 2007 Pain 128 p272). The MIA model induces an early synovitis (day 3) followed by progressive loss of articular cartilage, and subchondral bone pathology by day 14.
N-{5-[(cyclopropylamino)carbonyl]-2-methylphenyl}-3-fluoro-4-(pyridin-2-ylmethoxy)benzamide was formulated into PLGA microspheres (50:50 PLGA as in Example 1) and tested in the MIA model. Rats were injected intra-articularly with MIA on day 0. Three days post MIA (to allow disease to progress) animals were injected intra-articularly with formulated N-{5-[(cyclopropylamino)carbonyl]-2-methylphenyl}-3-fluoro-4-(pyridin-2-ylmethoxy)benzamide in 50:50 PLGA (200 μg/30 μl) or with microsphere formulation ([…]).
A dose of 29 μg/ml (69 μM) of N-{5-[(cyclopropylamino)carbonyl]-2-methylphenyl}-3-fluoro-4-(pyridin-2-ylmethoxy)benzamide was delivered in a 5 μl injection volume to give a Cmin concentration of 1 μM at 1.5 hours. The dosing was carried out 3 days post MIA at the same time point that formulated N-{5-[(cyclopropylamino)carbonyl]-2-methylphenyl}-3-fluoro-4-(pyridin-2-ylmethoxy)benzamide as the PA were dosed. […]

[2] = Synovial fluid pharmacokinetics after intra-articular injection of unformulated PA; format: in vivo; conditions: rat, 15 ng in 5 μl intra-articular
Experimental: Unformulated N-{5-[(cyclopropylamino)carbonyl]-2-methylphenyl}-3-fluoro-4-(pyridin-2-ylmethoxy)benzamide was intra-articularly injected (15 ng in 5 μl injection in PBS) to rats and synovial fluid concentrations were determined at 15, 30 and 60 minutes post dose. The synovial fluid from the rat knee joint was sampled using a knee wash methodology. The knee was exposed and a transverse cut made to the patellar tendon proximal to the tibia. The knee cavity was opened up by dissection, and the knee lavaged between the tibial and femoral condyles with 3×25 μl PBS using an eppendorf pipette.

[3] = Systemic pharmacokinetic parameters in the rat; format: in vivo; design: systemic Vdss: unit not given here
[4] = Hydrolytic stability of PA in the acidic microclimate of the degrading polymer; format: physicochemical; conditions: acidic microclimate created upon degradation of the polymer

Clearance (Cl) [2]: 61 µL/h
Volume of distribution (Vdss) [2]: 9 µL
half-life ([2]; read-out: Half-life (t1/2) (converted)): 12 min
systemic Vdss [3]: 1.71 kg⁻¹
clearance ([3]; in vivo, read-out: systemic Cl): 14 mL/min/kg
hydrolytic stability [4]: hydrolytically stable
SMILES: Cc1ccc(C(=O)NC2CC2)cc1NC(=O)c1ccc(OCc2ccccn2)c(F)c1 [PA, N-{5-[(cyclopropylamino)carbonyl]-2-methylphenyl}-3-fluoro-4-(pyridin-2-ylmethoxy)benzamide]
efficacy in MIA model (% weight distribution) [1]: no efficacy
